{"source": "patent US12233060B2", "about": "“Inhibitors of Ataxia-Telangiectasia Mutated and Rad3-related protein kinase (ATR) for use in methods of treating cancer” (THE INSTITUTE OF CANCER RESEARCH: ROYAL CANCER HOSPITAL, priority 2016, dated 2025)", "key": {"HCC1143 cells": {"test_system": "HCC1143 cells", "test": "384 well plate cell survival after ARID1A siRNA transfection", "format": "cell-based, human", "conditions": "ARID1A siRNA vs control, five continuous days exposure", "excerpt": "FIG. 1. […] A. Structure of VE-821 and schematic describing workflow for parallel VE-821 chemosensitisation screens in MCF12A and HCC1143 cells. B. Scatter plots of VE-821 Drug Effect (DE) Z-scores from all 1280 siRNAs used in the in the chemosensitisation screens. The DE Z-score threshold of −2 (red line) was used for defining candidate synthetic lethal interactions is shown. C. Venn diagram of DE<−2 VE-821 sensitisation hits in MCF12A and HCC1143 cells. Numbers shown indicate number of sensitisation genes. Amongst the 30 genes with DE Z-scores <−2 in both cell lines, seven well-established tumour suppressor genes were identified. D. Bar charts illustrating DE Z-scores for control, non-targeting, siRNAs (siALLSTAR, siCON1, siCON2) and ARID1A siRNAs in the chemosensitisation screens. Values shown are median from triplicate screens and error bars represent SD. […]\nA siRNA library was purchased from Dharmacon. […] RNAi screening conditions were optimised and raw CellTitre-Glo (Promega) luminescent viability readings were generated as previously described21. […]\nShort-term survival assays were performed in 384-well plates. […] Drug was added 24 h after seeding and cells were continuously exposed to the drug for five days, after which cell viability was estimated using CellTitre-Glo luminescence (Promega). […] Colonies were counted manually. […]"}, "HCT116 cells": {"test_system": "HCT116 cells", "test": "DNA fibre analysis, replication fork speed in HCT116 cells with SS18-SSX1", "format": "cell-based, human", "conditions": "0.1 μM for two hours", "protocol": "FIG. 10. ATR inhibitors elicit replication fork stress in SS tumour cells. […] Error bars represent SEM from triplicate experiments. p values were derived from Student's t tests. B. Western blot illustrating PARP1 cleavage in SYO1 cells exposed to VX970 for 24 hours. C. Western blot illustrating H2AX phosphorylation (γH2AX) in SYO1 cells exposed to VX970 (0.1 μM). D. Confocal microspcopy images illustrating H2AX phosphorylation in SYO1 cells exposed to VX970 (0.1 μM, 24 hours). E. Bar chart depicting data from (D). Error bars represent SEM from 100 images. p values were derived from Student's t tests. F. Replication fork speeds in SYO1 cells exposed to 0.1 μM VX970 for two hours. p value was derived from a Student's t test. G. Replication fork speeds in HCT116 cells exposed to 0.1 μM VX970 for two hours in the presence and absence of ectopic expression of a SS18-SSX1 fusion protein. p values were derived from Student's t tests. Expression of SS18-SSX1 or exposure to VX970 reduced fork speed. Combined SS18-SSX1 expression and VX970 exposure enhanced the reduction in fork speed. H and I. FACS plots from SYO1 cells exposed to VX970.\nATRi induced cytotoxicity in tumour cells derived from carcinomas is often associated with an increase in replication fork stress."}}}
{"smiles": "CNCc1ccc(-c2cc(-c3nc(-c4ccc(S(=O)(=O)C(C)C)cc4)cnc3N)on2)cc1", "note": "[VX-970, 5-[4-(Isopropylsulfonyl)phenyl]-3-(3-{4-[(methylamino)methyl]phenyl}-1,2-oxazol-5-yl)-2-pyrazinamine]", "values": [{"measurement": "ATRi sensitivity caused by ARID1A siRNA", "setting": "HCC1143 cells", "value": "caused sensitivity"}, {"measurement": "decrease in replication fork speed with SS18-SSX1 expression plus VX970", "setting": "HCT116 cells", "value": "enhanced by the addition of VX970"}]}
